Measurements reported in article PMC10136296, “Biological Screening and Crystallographic Studies of Hydroxy γ-Lactone Derivatives to Investigate PPARγ Phosphorylation Inhibition” (Biomolecules, 2023).

What was measured:
[1] = biological target: T1, CDK5/p35 (Homo sapiens, UniProt Q00535); test: CDK5 inhibition test with histone H2A/H2B as substrate; format: biochemical; conditions: 5 µM ligand, H2a/H2b as phosphorylation target
T1 construct: purchased Sigma-Aldrich (Merck KGaA) SRP5011
Experimental: The degree of CDK5 inhibition in the presence of compounds 1, 2, and 3 was evaluated with the same protocol described above for the in vitro kinase assay. In detail, the test was carried out for 30 min at 30 °C in 50 μL of the assay buffer containing 50 mM Tris-HCl, pH 7.5, 800 ng H2A/H2B, 5 μM ligand (for the calculation of the ligand concentration, the excess amount of compounds 1, 2, and 3 possibly not bound to PPARγ was overestimated), 1% DMSO, 2.5 mM MgCl2, 50 μM DTT, 500 μM ATP, 40 ng of CDK5/p35 (Sigma-Aldrich code no. SRP5011; Merck KGaA). The Pro-Q™ Diamond Phosphoprotein Gel Stain method and a Chemidoc Imaging System (Bio-Rad) were used for measuring the phosphorylation level. The experiment was performed in triplicate and the statistical significance was estimated as above.
Furthermore, these molecules were also screened as potential inhibitors of CDK5 itself, considering their structural similarity to BLI (Figure 2), which was reported in the literature as both a PPARγ partial agonist and a CDK5 inhibitor [10]. A kinase activity test was performed in the presence of compounds 1, 2, and 3, using histone H2a/H2b as a phosphorylation target.

[2] = biological target: T2, human PPARγ subtype (hPPARγ), Gal4-PPARγ-LBD (Homo sapiens, UniProt P37231); test: GAL4-PPAR transactivation assay, antagonist mode (competition with rosiglitazone); format: cell-based; conditions: HepG2, antagonist mode vs rosiglitazone 1 µM; mean ± SEM; uncertain above 10 µM because of cytotoxicity
T2 construct: expressed in transfected cells; host or cells: HepG2
T2 sequence (P37231 238-503 limits assumed): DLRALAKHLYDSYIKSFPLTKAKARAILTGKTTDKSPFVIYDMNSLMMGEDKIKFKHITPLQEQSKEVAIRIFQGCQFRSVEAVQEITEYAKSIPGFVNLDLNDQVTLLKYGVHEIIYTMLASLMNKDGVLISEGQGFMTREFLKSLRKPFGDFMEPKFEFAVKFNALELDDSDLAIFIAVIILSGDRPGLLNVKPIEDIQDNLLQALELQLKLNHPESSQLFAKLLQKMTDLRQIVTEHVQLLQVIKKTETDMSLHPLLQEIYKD
Description: (§1) Reference compounds, the cell culture medium, and the reagents were purchased from Sigma-Aldrich (Merck KGaA). The expression vectors bearing the chimeric receptor containing the yeast Gal4-DNA binding domain fused to the human PPARγ-LBD, and the reporter plasmid for this Gal4 chimeric receptor (pGal5TKpGL3), comprising five repeats of the Gal4 response elements upstream of a minimal thymidine kinase promoter adjacent to the coding sequence for luciferase, were described in a previous study. A culture of the human hepatoblastoma cell line HepG2 (Interlab Cell Line Collection, Genoa, Italy) was conducted in minimum essential medium (MEM) containing 10% heat-inactivated fetal bovine serum, 100 U of penicillin G mL^−1, and 100 μg mL^−1 of streptomycin sulfate at 37 °C in a humidified atmosphere of 5% CO2. For transactivation assays, cells were seeded in a 24-well plate at a concentration of 10^5 cells per well and were transfected after 24 h by CAPHOS, a calcium phosphate method, according to the manufacturer’s guidelines. Cell transfection was performed using expression plasmids encoding the fusion protein Gal4-PPARγ-LBD (30 ng), pGal5TKpGL3 (100 ng), and pCMVβgal (250 ng). […] Cell extracts were subsequently analyzed for luciferase activity via luminometry (VICTOR^3 V multilabel plate reader; PerkinElmer, Waltham, MA, USA). ortho-Nitrophenyl-β-D-galactopyranoside was used to measure β-galactosidase activity, following a previously described method. […]
(§2) Furthermore, compounds 1–3 were evaluated in vitro for their agonist activity towards the human PPARγ subtype (hPPARγ) by employing the GAL4-PPAR transactivation assay. […] We evaluated the efficacy of 1–3 on PPARγ at increasing concentrations up to 100 μM. […] The compounds were also analyzed in antagonist mode by conducting a competitive binding assay, in which PPARγ activity was measured at a fixed concentration of the reference agonist rosiglitazone (1 µM) in cells treated with increasing concentrations of 1–3. […]

[3] = biological target: T2, human PPARγ subtype (hPPARγ), Gal4-PPARγ-LBD; test: GAL4-PPAR transactivation assay, agonist mode; format: cell-based; conditions: HepG2, up to 100 µM; rosiglitazone maximum = 100%
Description: as §1, §2

[4] = tested on: PPARγ Ser245 phosphorylation by CDK5/p35; test: In vitro kinase assay: CDK5-mediated phosphorylation of PPARγ-LBD (Pro-Q Diamond stain); format: biochemical; conditions: 10 µM ligand, 30 min at 30 °C
Experimental: The assay was performed on PPARγ-LBD, in the apo-form and in the complex with ligands 1–3. For the kinase assay, stock solutions of ligands were prepared by diluting with 100% DMSO to a concentration of 500 μM. The stock solutions were further diluted with 50 mM Tris-HCl, pH 7.5, up to the final concentration of 10 μM and pre-equilibrated overnight at 4 °C with the protein.
The kinase assay was carried out for 30 min at 30 °C in 50 μL of the assay buffer containing 50 mM Tris-HCl, pH 7.5, 800 ng of PPARγ-LBD, 10 μM ligand, 1% DMSO, 2.5 mM MgCl2, 50 μM DTT, 500 μM ATP, 40 ng of CDK5/p35 (Sigma-Aldrich code no. SRP5011; Merck KGaA). The experiment was performed in triplicate.
Pro-Q™ Diamond phosphoprotein gel stain (ThermoFisher, Waltham, MA, USA) provides a convenient method for selectively staining phosphoproteins in acrylamide gels, without the need for blotting or the use of phosphoprotein-specific antibodies. After performing electrophoresis, the gel was stained with Pro-Q™ Diamond and analyzed using a Chemidoc Imaging System (Bio-Rad). A further step of gel staining with SYPRO™ Ruby total-protein gel stain (ThermoFisher) was performed. Determining the ratio of the signal intensities of Pro-Q™ Diamond dye to SYPRO™ Ruby dye for each band provides a measure of the phosphorylation level normalized to the total amount of protein. More detailed information on the protocol used in this experiment can be obtained on the ThermoFisher website.
Finally, to assess the ability of 1–3 to inhibit the CDK5-mediated phosphorylation of PPARγ in vitro, a kinase assay was set up and optimized to measure the inhibition rate, as described in the experimental section. The phosphoproteins were detected and quantified by using the Pro-Q™ Diamond phosphoprotein gel stain method.

[5] = biological target: T3, PPARγ-LBD (Homo sapiens, UniProt P37231); test: SPR full kinetic analysis on immobilized PPARγ-LBD; format: binding; conditions: for Kd: SPR full kinetic analysis, KD = Koff/Kon; for koff / kon: SPR, 25 °C, 5 μM to 312 nM, 1:1 model
T3 construct: PPARγ-LBD (NP_001120802; aa 207−474) was expressed as an N-terminal His-tagged protein; His-tag (N, cleaved yes); made in house; host or cells: E. coli BL21(DE3), pET-28a(+)
T3 sequence (P37231 207-474 isoform P37231-2 limits assumed): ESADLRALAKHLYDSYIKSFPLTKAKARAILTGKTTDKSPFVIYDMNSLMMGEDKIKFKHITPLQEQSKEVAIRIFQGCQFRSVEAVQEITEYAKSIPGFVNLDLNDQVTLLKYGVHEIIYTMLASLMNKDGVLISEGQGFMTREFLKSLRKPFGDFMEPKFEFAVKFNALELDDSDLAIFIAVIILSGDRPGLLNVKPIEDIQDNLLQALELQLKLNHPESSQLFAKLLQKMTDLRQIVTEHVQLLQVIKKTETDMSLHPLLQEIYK
Experimental: SPR experiments were performed at 25 °C using a Pioneer AE optical biosensor (Sartorius, Varedo, Italy) equipped with a PCH sensor chip (linear polycarboxylate hydrogel layer) and equilibrated with running buffer 10 mM Hepes, pH 7.4, 150 mM NaCl, 0.005% Tween-20, 1% DMSO. The PCH sensor chip was installed and conditioned in accordance with the manufacturer’s instructions. PPARγ-LBD was immobilized on the surface using amine coupling chemistry. Briefly, flow cells were activated for 5 min by injecting 125 μL of 1:1 ratio of 100 mM N-hydroxysuccinimide (NHS)/400 mM N-ethyl-N’-(3-(dimethylamino)propyl)carbodiimide (EDC). The protein solution (150 μg mL^−1 in 10 mM Na Acetate, pH 4.5) was then injected at 10 μL min^−1, followed by a 70 μL injection of 1 M ethanolamine (pH 8.0) to block any remaining activated groups on the surface. Approximately 11,770 and 10,800 RUs of protein were immobilized on Channel 1 and Channel 3 of the sensor chip, respectively, whereas Channel 2 was used as a reference for non-specific binding. […] The analytes were dialyzed in the running buffer (1% final DMSO concentration) and primary screened using OneStep® injection technology, which allows the compounds to diffuse into a moving stream of buffer to generate a concentration gradient (from 0 up to 10 μM) during a single injection at a flow rate of 50 μL min^−1 [40]. For each analyte injection, a long dissociation (600 s) was allowed, and regeneration of the sensing surface was not used. Next, the full kinetic analysis of the selected compounds was performed at different serial concentrations (from 5 μM to 312 nM) for 120 s at a constant flow rate of 50 μL min^−1. For each analyte injection, a dissociation of 180 s was allowed, followed by a short mild regeneration step with 1 M NaCl. All sensorgrams were processed using double referencing. First, responses from the reference surface (Channel 2) were subtracted from the binding responses collected over the reaction surfaces to correct for bulk refractive index changes between the flow buffer and analyte sample. Second, the response from the closest blank injection (zero analyte concentration) was subtracted to compensate for drift and small differences between the activated channel and the reference flow cell Channel 2. As an internal control for the gradient dispersion process, an injection of 3% sucrose dissolved in the assay buffer was performed for all the injections to ensure proper gradient formation and to calibrate for buffer viscosity. To obtain kinetic rate constants and affinity constants, the corrected response data were fitted in QDAT software provided with the instrument (BioLogic Software, Canberra, Australia). A kinetic analysis of the ligand/analyte interaction was obtained by fitting the response data to a reversible 1:1 bimolecular interaction model. The equilibrium dissociation constant (KD) was determined by the ratio Koff/Kon. This experiment was performed in duplicate.
The OneStep® injection technology was used for the screening of our compound collection. This method has been successfully employed in our previous work to test a series of natural products, extracted from medicinal plants. Its efficiency and reliability as a screening technique were confirmed by the rapid identification of promising compounds. This approach is based on the well-established concept of Taylor dispersion injection, which allows the compound to diffuse into a moving stream of buffer, producing a gradient throughout the injections. In this way, a wide range of analyte concentrations can be readily tested. In this assay, all the ligands from the DMSO stock solutions were dialyzed into the running buffer at 10 μM (1% final DMSO concentration) and gradient-injected for 120 s over the sensor chip surface. […]

[6] = tested on: HepG2; test: Cytotoxicity seen by microscopy in the transactivation assay; format: cell-based, human; conditions: HepG2, at 25 and 100 µM, visually examined, data not shown
Experimental: Furthermore, compounds 1–3 were evaluated in vitro for their agonist activity towards the human PPARγ subtype (hPPARγ) by employing the GAL4-PPAR transactivation assay. The results were compared to the corresponding data for rosiglitazone, used as a reference in the test. The maximum fold induction obtained with the reference agonist was defined as 100%. We evaluated the efficacy of 1–3 on PPARγ at increasing concentrations up to 100 μM. […] The compounds were also analyzed in antagonist mode by conducting a competitive binding assay, in which PPARγ activity was measured at a fixed concentration of the reference agonist rosiglitazone (1 µM) in cells treated with increasing concentrations of 1–3. The inhibition curves, from which the IC50 values were extrapolated as mean ± SEM of three duplicate experiments, are reported in Figure 4A. […] Consequently, the IC50 values could not be estimated with a certainty above 10 µM, which was the threshold at which the cytotoxicity was null or negligible. From the inhibition curves (Figure 4A), we hypothesized the absence of antagonism: the activity remained unchanged up to 10 µM and then decreased at 25 µM and 100 µM. However, at these concentrations, the signal reduction could not be unequivocally attributed to PPARγ antagonism, due to the cytotoxic effects of the compounds at higher doses.

T1 sequence (Q00535 whole entry): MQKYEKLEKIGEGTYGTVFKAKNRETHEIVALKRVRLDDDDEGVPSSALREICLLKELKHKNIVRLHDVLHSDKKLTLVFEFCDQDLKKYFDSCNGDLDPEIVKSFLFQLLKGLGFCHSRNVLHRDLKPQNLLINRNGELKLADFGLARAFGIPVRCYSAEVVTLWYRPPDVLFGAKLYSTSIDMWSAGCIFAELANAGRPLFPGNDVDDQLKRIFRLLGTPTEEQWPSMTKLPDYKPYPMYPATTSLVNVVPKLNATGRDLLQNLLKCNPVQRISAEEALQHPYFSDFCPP
T1 sequence (Q15078 whole entry partner): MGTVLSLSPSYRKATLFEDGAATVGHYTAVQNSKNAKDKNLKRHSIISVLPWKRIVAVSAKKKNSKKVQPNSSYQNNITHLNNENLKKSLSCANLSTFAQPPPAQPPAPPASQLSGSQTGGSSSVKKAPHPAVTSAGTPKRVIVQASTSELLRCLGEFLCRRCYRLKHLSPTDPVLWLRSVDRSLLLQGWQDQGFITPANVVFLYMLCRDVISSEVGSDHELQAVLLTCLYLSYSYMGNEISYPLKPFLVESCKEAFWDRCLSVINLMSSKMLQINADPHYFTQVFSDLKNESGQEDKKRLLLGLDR

Row | CDK5 inhibition [1] | agonist activity in the PPARγ transactivation assay [3] | inhibition of Ser245 phosphorylation [4] [%] | Kd [5] [µM] | koff [5] [s⁻¹] | kon [5] [M⁻¹ s⁻¹] | melting point | Structure (SMILES) | IC50 [2] [µM] | cytotoxicity [6]
1 | very low inhibition effect | PPARγ non-agonists | ~40 | 3.75 ± 0.06 | 0.0679 ± 0.0004 | 18100 ± 3e+06 | 194 to 195 °C (dec.) | O=C1OC(c2cccc(O)c2)C(c2ccc(Br)cc2)=C1O (stereo not drawn) [Compound 1, 4-(4-Bromophenyl)-3-hydroxy-5-(3-hydroxyphenyl)furan-2(5H)-one] | 39.9 ± 1.2 | –
2 | more significant inhibitory activity | PPARγ non-agonists | ~40 | 1.93 ± 0.02 | 0.02241 ± 9e-05 | 11700 ± 1e+06 | – | O=C1OC(c2cccc(O)c2)C(C(=O)c2ccccc2)=C1O (stereo not drawn) [Compound 2, 4-Benzoyl-3-hydroxy-5-(3-hydroxyphenyl)furan-2(5H)-one] | 35.1 ± 2.8 | –
3 | more significant inhibitory activity | PPARγ non-agonists | ~40 | 1.67 ± 0.02 | 0.0362 ± 0.0001 | 21700 ± 2e+06 | 204 °C | O=C1OC(c2ccc(OCc3cccc4ccccc34)cc2)C(c2ccccc2)=C1O (stereo not drawn) [Compound 3, 3-Hydroxy-5-(4-(naphthalen-1-ylmethoxy)phenyl)-4-phenylfuran-2(5H)-one] | 16.2 ± 2.5 | a certain cytotoxicity
